Measurements from patent US20240199542A1, “SUBSTITUTED PYRROLIDIN-2-ONES, SALTS THEREOF AND THEIR USE AS HERBICIDALLY ACTIVE SUBSTANCES” (Bayer Aktiengesellschaft, priority 2021, published 2024).

Experiments:
Type in all cases: in vivo
[1] = tested on: Alopecurus myosuroides (ALOMY); experiment: Herbicidal pre-emergence action; conditions: graded after ca. 3 weeks
Method in brief: (§1)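 Percent herbicidal effect, from 0% (as untreated) to 100% (plants dead), was graded visually about 3 weeks after treatment under optimal greenhouse conditions. Compounds, as WP or EC with 0.5% additive in 600 l water/ha at up to 1280 g/ha, were applied to covering soil over freshly sown seeds in sandy loam.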

[2] = tested on: Amaranthus retroflexus (AMARE); experiment: Herbicidal pre-emergence action; conditions: 1280 g/ha, graded after ca. 3 weeks
Method in brief: as §1

[3] = tested on: Avena fatua (AVEFA); experiment: Herbicidal pre-emergence action; conditions: graded after ca. 3 weeks
Method in brief: as §1

[4] = tested on: Lolium multiflorum (LOLMU); experiment: Herbicidal pre-emergence action; conditions: 1280 g/ha, graded after ca. 3 weeks
Method in brief: as §1

[5] = tested on: Echinochloa crus-galli (ECHCG); experiment: Herbicidal pre-emergence action; conditions: 1280 g/ha, graded after ca. 3 weeks
Method in brief: as §1

[6] = tested on: Polygonum convolvulus (POLCO); experiment: Herbicidal pre-emergence action; conditions: graded after ca. 3 weeks
Method in brief: as §1

[7] = tested on: Setaria viridis (SETVI); experiment: Herbicidal pre-emergence action; conditions: graded after ca. 3 weeks
Method in brief: as §1

[8] = tested on: Alopecurus myosuroides (ALOMY); experiment: Herbicidal post-emergence action; conditions: 1280 g/ha, assessed after ca. 3 weeks
Method in brief: (§2)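 Plants sprayed at single-leaf stage, 2–3 wk post-sowing; aq. suspension/emulsion of WP or EC, 0.5% additive, 600 l/ha; doses 1280 or 320 g/ha. Greenhouse ~3 wk, then visual % effect vs untreated (100% = dead).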

[9] = tested on: Avena fatua (AVEFA); experiment: Herbicidal post-emergence action; conditions: 1280 g/ha, assessed after ca. 3 weeks
Method in brief: as §2

[10] = tested on: Cyperus esculentus (CYPES); experiment: Herbicidal post-emergence action; conditions: 1280 g/ha, assessed after ca. 3 weeks
Method in brief: as §2

[11] = tested on: Echinochloa crus-galli (ECHCG); experiment: Herbicidal post-emergence action; conditions: 1280 g/ha, assessed after ca. 3 weeks
Method in brief: as §2

[12] = tested on: Lolium multiflorum (LOLMU); experiment: Herbicidal post-emergence action; conditions: 1280 g/ha, assessed after ca. 3 weeks
Method in brief: as §2

[13] = tested on: Polygonum convolvulus (POLCO); experiment: Herbicidal post-emergence action; conditions: 1280 g/ha, assessed after ca. 3 weeks
Method in brief: as §2

[14] = tested on: Setaria viridis (SETVI); experiment: Herbicidal post-emergence action; conditions: 1280 g/ha, assessed after ca. 3 weeks
Method in brief: as §2

[15] = tested on: Digitaria sanguinalis (DIGSA); experiment: Herbicidal pre-emergence action; conditions: graded after ca. 3 weeks
Method in brief: as §1

[16] = tested on: Lolium rigidum (LOLRI); experiment: Herbicidal pre-emergence action; conditions: 320 g/ha, graded after ca. 3 weeks
Method in brief: as §1

[17] = tested on: Poa annua (POAAN); experiment: Herbicidal pre-emergence action; conditions: graded after ca. 3 weeks
Method in brief: as §1

[18] = tested on: Digitaria sanguinalis (DIGSA); experiment: Herbicidal post-emergence action; conditions: assessed after ca. 3 weeks
Method in brief: as §2

[19] = tested on: Poa annua (POAAN); experiment: Herbicidal post-emergence action; conditions: assessed after ca. 3 weeks
Method in brief: as §2

[20] = tested on: Brassica napus (BRSNW); experiment: Post-emergence effects on crop plants; conditions: crop plant Brassica napus (BRSNW)
Description: (§3) Seeds of mono- and dicotyledonous weed plants and crop plants were sown, in plastic or organic planting pots, in sandy loam, covered with soil and grown in a greenhouse under controlled growth conditions. 2 to 3 weeks after sowing, the test plants were sprayed in the single-leaf stage. The compounds according to the invention, formulated in form of wettable powders (WP) or as emulsifiable concentrates (EC), were sprayed onto the green plant parts as aqueous suspension or emulsion, with the addition of 0.5% of an additive, at an application rate of 600 1 of water/ha (converted). The test plants were placed in the greenhouse for ca. 3 weeks under optimum growth conditions, and then the effect of the preparations was assessed visually in comparison with untreated controls (herbicidal effect in percent (%): 100% effect=plants have died off, 0% effect=as control plants).
(§4) Tables D1 to D3 below show the effects of selected compounds of the general formula (I) according to table 1 on various crop plants and an application rate corresponding to 320 g/ha or below obtained by the experimental procedure mentioned above in biology section B.

[21] = tested on: Cyperus esculentus (CYPES); experiment: Herbicidal pre-emergence action; conditions: 1280 g/ha, graded after ca. 3 weeks
Method in brief: as §1

[22] = tested on: Viola tricolor (VIOTR); experiment: Herbicidal pre-emergence action; conditions: 320 g/ha, graded after ca. 3 weeks
Method in brief: as §1

[23] = tested on: Lolium rigidum (LOLRI); experiment: Herbicidal post-emergence action; conditions: 320 g/ha, assessed after ca. 3 weeks
Method in brief: as §2

[24] = tested on: Stellaria media (STEME); experiment: Herbicidal post-emergence action; conditions: 1280 g/ha, assessed after ca. 3 weeks
Method in brief: as §2

[25] = tested on: Brassica napus (BRSNW); experiment: Pre-emergence effects on crop plants; conditions: 320 g/ha, crop plant
Description: (§5) Seeds of mono- and dicotyledonous weed plants and crop plants were sown, in plastic or organic planting pots, in sandy loam and covered with soil. The compounds according to the invention, formulated in the form of wettable powders (WP) or as emulsifiable concentrates (EC), were applied to the surface of the covering soil as aqueous suspension or emulsion, with the addition of 0.5% of an additive, at an application rate of 600 1 of water/ha (converted).
(§6) Following treatment, the pots were placed in a greenhouse and kept under optimum growth conditions for the test plants. The visual grading of the damage to the test plants was carried out after ca. 3 weeks in comparison to untreated controls (herbicidal effect in percent (%): 100% effect=plants have died off, 0% effect=as control plants).
(§7) Tables C1 to C3 below show the effects of selected compounds of the general formula (I) according to table 1 on various crop plants and an application rate corresponding to 320 g/ha or below obtained by the experimental procedure mentioned above in biology section A.

[26] = tested on: Glycine max (GLXMA); experiment: Pre-emergence effects on crop plants; conditions: 320 g/ha, crop plant
Description: as §5, §6, §7

[27] = tested on: Zea Mays (ZEAMX); experiment: Pre-emergence effects on crop plants; conditions: crop plant
Description: as §5, §6, §7

[28] = tested on: Glycine max (GLXMA); experiment: Post-emergence effects on crop plants; conditions: 320 g/ha, crop plant
Description: as §3, §4

[29] = tested on: Zea Mays (ZEAMX); experiment: Post-emergence effects on crop plants; conditions: crop plant
Description: as §3, §4

[30] = tested on: Veronica persica (VERPE); experiment: Herbicidal pre-emergence action; conditions: 1280 g/ha, graded after ca. 3 weeks
Method in brief: as §1

[31] = tested on: Pharbitis purpurea (PHBPU); experiment: Herbicidal pre-emergence action; conditions: 1280 g/ha, graded after ca. 3 weeks
Method in brief: as §1

[32] = tested on: Amaranthus retroflexus (AMARE); experiment: Herbicidal post-emergence action; conditions: 1280 g/ha, assessed after ca. 3 weeks
Method in brief: as §2

Compound	Pre-emergence activity against ALOMY ([1]; 1280 g/ha)	Pre-emergence activity against AVEFA ([3]; 1280 g/ha)	Pre-emergence activity against LOLMU [4]	Pre-emergence activity against ECHCG [5]	Pre-emergence activity against POLCO ([6]; 1280 g/ha)	Pre-emergence activity against SETVI ([7]; 1280 g/ha)	Post-emergence activity against ALOMY [8]	Post-emergence activity against AVEFA [9]	Post-emergence activity against ECHCG [11]	Post-emergence activity against LOLMU [12]	Post-emergence activity against SETVI [14]	Pre-emergence activity against DIGSA ([15]; 320 g/ha)	Pre-emergence activity against LOLRI [16]	Post-emergence activity against DIGSA ([18]; 320 g/ha)	Post-emergence activity against LOLRI [23]	also measured
COC(=O)C1(NC(=O)CC2CCC(=O)N2Cc2cccc(F)c2F)CC1 (racemic) [Example I-048]	80%	90%	80%													Pre-emergence activity against AMARE [2]: 90%
C=CCOC(=O)CC1CCC(=O)N1Cc1cccc(F)c1F (racemic) [Example I-021]	90%	100%	90%	80%	80%	80%	80%	80%	90%	90%	90%					Post-emergence activity against CYPES [10]: 80%; Post-emergence activity against POLCO [13]: 80%
O=C(O)CC1CCC(=O)N1Cc1ccc(F)c(F)c1F (centres unmarked) [Example I-192, [5-Oxo-1-(2,3,4-trifluorobenzyl)pyrrolidin-2-yl]acetic acid]	90%			80%		90%			90%			90%	90%			Pre-emergence activity against DIGSA ([15]; 1280 g/ha): 90%; Pre-emergence activity against POAAN ([17]; 320 g/ha): 100%; Pre-emergence activity against POAAN ([17]; 1280 g/ha): 100%; Post-emergence activity against DIGSA ([18]; 1280 g/ha): 90%; Post-emergence activity against POAAN ([19]; 320 g/ha): 100%; Post-emergence activity against POAAN ([19]; 1280 g/ha): 100%; post-emergence activity against BRSNW ([20]; application rate 320 g/ha): 0%
COCCOC(=O)CC1CCC(=O)N1Cc1cccc(F)c1F (racemic) [Example I-015]	90%	100%	80%	90%	80%	90%		90%	100%	80%	90%	100%	80%	80%	80%	Pre-emergence activity against CYPES [21]: 80%; Pre-emergence activity against VIOTR [22]: 90%; Post-emergence activity against POLCO [13]: 80%; Post-emergence activity against STEME [24]: 90%; pre-emergence activity against BRSNW (crop damage) [25]: 20%; pre-emergence activity against GLXMA (crop damage) [26]: 0%; pre-emergence activity against ZEAMX (crop damage) ([27]; 320 g/ha): 0%; post-emergence activity against BRSNW ([20]; application rate 80 g/ha): 0%; post-emergence activity against GLXMA (crop damage) [28]: 0%; post-emergence activity against ZEAMX (crop damage) ([29]; 320 g/ha): 0%
O=C(O)CC1CCC(=O)N1Cc1cccc(Cl)c1F (racemic) [Example I-001, 2-[1-[(3-chloro-2-fluorophenyl)methyl]-5-oxo-pyrrolidin-2-yl]acetic acid]	90%	100%	90%	80%			90%	90%	90%	100%	80%	100%	90%	90%	80%	Pre-emergence activity against ALOMY ([1]; 320 g/ha): 80%; Pre-emergence activity against AVEFA ([3]; 320 g/ha): 100%; Pre-emergence activity against CYPES [21]: 80%; Pre-emergence activity against POLCO ([6]; 320 g/ha): 80%; Pre-emergence activity against SETVI ([7]; 320 g/ha): 100%; Pre-emergence activity against VERPE [30]: 90%; post-emergence activity against BRSNW ([20]; application rate 320 g/ha): 0%
CC1(C)CCC(=O)C(C(=O)CC2CCC(=O)N2Cc2cccc(F)c2F)C1=O (racemic) [Example I-178]	90%	90%		90%	90%			80%	90%							Pre-emergence activity against PHBPU [31]: 90%; Post-emergence activity against AMARE [32]: 100%; Post-emergence activity against STEME [24]: 80%
O=C(CC1CCC(=O)N1Cc1cccc(F)c1F)Nc1ncns1 (centres unmarked) [Example I-193, 2-[1-[(2,3-difluorophenyl)methyl]-5-oxo-pyrrolidin-2-yl]-N-(1,2,4-thiadiazol-5-yl)acetamide]																Pre-emergence activity against POAAN ([17]; 1280 g/ha): 90%; Post-emergence activity against POAAN ([19]; 1280 g/ha): 90%
O=C(CC1CCC(=O)N1Cc1cccc(F)c1F)NCC(F)(F)F (racemic) [Example I-090]																Pre-emergence activity against PHBPU [31]: 100%
O=C(O)CC1CCC(=O)N1Cc1cccc(F)c1F (single isomer, unassigned) [Example I-014]	100%	100%	90%	80%			80%	80%	90%	80%	90%	100%	90%	80%	80%	Pre-emergence activity against POLCO ([6]; 320 g/ha): 90%; Pre-emergence activity against SETVI ([7]; 320 g/ha): 90%; Pre-emergence activity against VIOTR [22]: 90%; Post-emergence activity against CYPES [10]: 80%; pre-emergence activity against BRSNW (crop damage) [25]: 0%; pre-emergence activity against GLXMA (crop damage) [26]: 0%; pre-emergence activity against ZEAMX (crop damage) ([27]; 80 g/ha): 0%; post-emergence activity against BRSNW ([20]; application rate 80 g/ha): 0%; post-emergence activity against GLXMA (crop damage) [28]: 0%; post-emergence activity against ZEAMX (crop damage) ([29]; 80 g/ha): 0%
O=C(CC1CCC(=O)N1Cc1cccc(F)c1F)NC1CCCc2ccccc21 (mixture of isomers) [Example I-066]																Post-emergence activity against AMARE [32]: 100%
